Test results as given in patent US20150290099A1, “NOVEL PSEUDOCERAMIDE COMPOUND AND PRODUCTION METHOD FOR SAME” (AMOREPACIFIC CORPORATION, priority 2012, published 2015).

Tests used:
[1] = tested on: Keraskin™ artificial skin; assay: Recovery of damaged artificial skin (measurement of transepithelial electrical resistance); format: cell-based; settings: for Change of TEER (%): Keraskin artificial skin, TEER after 24 h post-incubation divided by the initial value
Procedure: Transepithelial electrical resistance was measured in order to test recovery of damaged artificial skin by the compound of Example 2. Dodecanoic acid 2-dodecanoylamino-3-hydroxy-2-hydroxymethyl-propyl ester obtained from the Example 2 and phosphate buffered saline (PBS), octyl methoxycinnamate (OMC) and PC-104 were tested for comparison.
Transepithelial electrical resistance (TEER) of Keraskin™ purchased from MCTT was measured after 22 hours of pre-incubation. After placing the Keraskin™ on a 6-well plate, 400 μL of a medium was added in an insert and 5 mL of the medium was added outside the insert such that an even level was achieved inside and outside the insert. Then, measurement was made with the electrode tips of a resistance meter inside and outside the insert. TEER was measured for all the inserts, prior to the test, after treatment with the substances of Example 2 and Comparative Examples 1-3 and 24 hours after post-incubation. The TEER after the post-incubation was divided by the initial value to calculate the change in %.

artificial skin = assay: Quantitative analysis of ceramide in artificial skin; format: cell-based; parameters: C18SM: unit not given here; settings: for C18SM / ceramide in artificial skin (ng/mg skin): artificial skin, LC analysis, corrected for skin weight
Procedure: Artificial skin was weighed and put in a 4-mL glass vial. After adding 2400 μL of CHCl3/MeOH (=½) and 100 μL of IS STD, the artificial skin was cut into small pieces with scissors. After sonication for 30 minutes, solutions mixing sodium lauryl sulfate (SLS) to each of dodecanoic acid 2-dodecanoylamino-3-hydroxy-2-hydroxymethyl-propyl ester obtained from the Example 2, phosphate buffered saline (PBS), octyl methoxycinnamate (OMC) and PC-104, as described in Table 2, were filtered through a PTFE syringe filter, and 1250 μL of each filtrate was transferred to an EP tube.
After completely removing the solvent using a speed vacuum dryer, the residue was redissolved by adding 100 μL of an analytical mobile phase. After centrifugation, only the supernatant was taken and analyzed after transferring to an LC vial. The concentration of ceramide was corrected for the weight of the artificial skin.

[2] = test substance mixed with sodium lauryl sulfate (SLS)

Compound | Change of TEER (%) [1] [%] | C18SM (artificial skin; PBS instead of SLS) | ceramide in artificial skin (ng/mg skin) (artificial skin; PBS instead of SLS) | C18SM (artificial skin; [2]) | ceramide in artificial skin (ng/mg skin) (artificial skin; [2]) | effect of recovering damaged artificial skin (TEER), in words ([1]; compared with PC-104) | ceramide content in the artificial skin, in words (artificial skin; compared with PC-104)
CCCCC(CC)COC(=O)C=Cc1ccc(OC)cc1 (stereo not shown) [Comparative Example 2, octyl methoxycinnamate] | 30.9 | 1747.3 | 990.8 | 843.6 | 758.3 |  | 
CCCCCCCCCCCCCCCC(=O)N(CCO)CC(O)CN(CCO)C(=O)CCCCCCCCCCCCCCC [Comparative Example 3] | 35.7 |  |  | 1141.1 | 995.5 |  | 
CCCCCCCCCCCC(=O)NC(CO)(CO)COC(=O)CCCCCCCCCCC [Example 2, dodecanoic acid 2-dodecanoylamino-3-hydroxy-2-hydroxymethyl-propyl ester] | 70.8 |  |  | 1811.5 | 1152.4 | higher than the conventionally used PC-104 | higher than that for PC-104
